Assays:
Format in all cases: biochemical
CDK7/Cyclin H/MAT1 = CDK7/Cyclin H/MAT1 (Homo sapiens, UniProt P50613); assay: CDK7/Cyclin H/MAT1 in vitro kinase inhibition (Biological Example 1 of WO2022/111621)
Procedure: (§1) Biological activity for representative compounds of the present disclosure were tested according to those described in Biological Example 1 in PCT/CN2021/133429, published as WO2022/111621 on Jun. 2, 2022.

CDK6/Cyclin D1 = CDK6/Cyclin D1 (Homo sapiens, UniProt Q00534); assay: CDK6/Cyclin D1 in vitro kinase inhibition (Biological Example 1 of WO2022/111621)
CDK6/Cyclin D1, sequence (Q00534 whole entry): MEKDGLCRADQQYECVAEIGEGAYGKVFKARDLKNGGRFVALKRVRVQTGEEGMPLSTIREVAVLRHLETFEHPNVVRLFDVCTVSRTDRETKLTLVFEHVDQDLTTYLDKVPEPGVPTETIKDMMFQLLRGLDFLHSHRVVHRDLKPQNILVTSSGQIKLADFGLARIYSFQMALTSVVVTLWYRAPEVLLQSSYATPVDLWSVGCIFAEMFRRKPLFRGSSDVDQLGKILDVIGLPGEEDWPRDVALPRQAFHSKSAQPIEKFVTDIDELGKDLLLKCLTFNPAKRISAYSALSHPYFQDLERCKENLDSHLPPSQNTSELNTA
CDK6/Cyclin D1, sequence (P24385 whole entry partner): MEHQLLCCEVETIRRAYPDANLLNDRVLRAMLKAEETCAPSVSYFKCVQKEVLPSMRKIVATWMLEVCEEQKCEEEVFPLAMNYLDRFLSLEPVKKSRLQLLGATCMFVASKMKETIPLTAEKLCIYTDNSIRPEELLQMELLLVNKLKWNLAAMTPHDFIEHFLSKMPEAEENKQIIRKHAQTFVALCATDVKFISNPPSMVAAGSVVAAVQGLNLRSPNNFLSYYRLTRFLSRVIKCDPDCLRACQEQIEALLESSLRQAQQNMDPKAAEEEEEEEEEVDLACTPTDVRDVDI
Procedure: as §1

CDK4/Cyclin D1 = CDK4/Cyclin D1 (Homo sapiens, UniProt P11802); assay: CDK4/Cyclin D1 in vitro kinase inhibition (Biological Example 1 of WO2022/111621)
CDK4/Cyclin D1, sequence (P11802 whole entry): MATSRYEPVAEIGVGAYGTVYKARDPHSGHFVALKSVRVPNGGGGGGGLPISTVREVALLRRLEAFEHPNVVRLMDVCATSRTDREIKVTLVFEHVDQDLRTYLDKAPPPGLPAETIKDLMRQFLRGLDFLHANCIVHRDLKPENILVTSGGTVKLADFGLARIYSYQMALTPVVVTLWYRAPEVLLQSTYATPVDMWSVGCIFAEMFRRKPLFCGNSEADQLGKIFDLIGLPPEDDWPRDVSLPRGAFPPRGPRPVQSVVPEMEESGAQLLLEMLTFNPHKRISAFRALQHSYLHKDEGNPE
CDK4/Cyclin D1, sequence (P24385 whole entry partner): as the sequence (P24385 whole entry partner) above
Procedure: as §1

CDK9/Cyclin T1 = CDK9/Cyclin T1 (Homo sapiens, UniProt P50750); assay: CDK9/Cyclin T1 in vitro kinase inhibition (Biological Example 1 of WO2022/111621)
CDK9/Cyclin T1, sequence (P50750 whole entry): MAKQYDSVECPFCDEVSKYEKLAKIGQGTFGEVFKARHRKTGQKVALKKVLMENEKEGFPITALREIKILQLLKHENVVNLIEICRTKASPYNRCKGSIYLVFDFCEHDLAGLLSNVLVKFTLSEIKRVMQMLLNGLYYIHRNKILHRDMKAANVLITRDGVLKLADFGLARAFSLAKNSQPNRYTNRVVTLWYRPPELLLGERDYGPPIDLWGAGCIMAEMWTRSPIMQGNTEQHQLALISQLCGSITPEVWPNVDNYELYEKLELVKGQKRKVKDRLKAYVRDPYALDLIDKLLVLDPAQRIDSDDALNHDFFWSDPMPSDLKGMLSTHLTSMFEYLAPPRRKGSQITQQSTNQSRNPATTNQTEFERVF
CDK9/Cyclin T1, sequence (O60563 whole entry partner): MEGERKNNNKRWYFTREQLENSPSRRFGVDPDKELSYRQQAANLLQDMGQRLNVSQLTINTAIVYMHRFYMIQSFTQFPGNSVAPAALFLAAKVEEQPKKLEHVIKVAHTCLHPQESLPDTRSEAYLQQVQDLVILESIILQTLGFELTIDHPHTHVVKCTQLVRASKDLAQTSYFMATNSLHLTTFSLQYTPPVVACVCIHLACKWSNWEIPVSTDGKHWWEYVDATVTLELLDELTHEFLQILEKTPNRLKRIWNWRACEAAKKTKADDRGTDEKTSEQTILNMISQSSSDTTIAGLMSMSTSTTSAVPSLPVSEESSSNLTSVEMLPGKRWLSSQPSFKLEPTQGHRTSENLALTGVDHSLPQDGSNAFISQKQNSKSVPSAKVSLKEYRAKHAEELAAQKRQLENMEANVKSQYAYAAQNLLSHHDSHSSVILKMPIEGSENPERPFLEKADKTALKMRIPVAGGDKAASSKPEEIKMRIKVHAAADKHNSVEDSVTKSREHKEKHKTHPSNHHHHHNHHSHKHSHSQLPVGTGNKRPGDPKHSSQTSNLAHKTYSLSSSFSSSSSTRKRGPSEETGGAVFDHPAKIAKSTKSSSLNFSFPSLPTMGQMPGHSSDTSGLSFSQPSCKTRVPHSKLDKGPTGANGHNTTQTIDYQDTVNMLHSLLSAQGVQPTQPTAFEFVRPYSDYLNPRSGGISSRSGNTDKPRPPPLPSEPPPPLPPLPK
Procedure: as §1

CDK7/Cyclin H/MAT1, sequence (P50613 whole entry): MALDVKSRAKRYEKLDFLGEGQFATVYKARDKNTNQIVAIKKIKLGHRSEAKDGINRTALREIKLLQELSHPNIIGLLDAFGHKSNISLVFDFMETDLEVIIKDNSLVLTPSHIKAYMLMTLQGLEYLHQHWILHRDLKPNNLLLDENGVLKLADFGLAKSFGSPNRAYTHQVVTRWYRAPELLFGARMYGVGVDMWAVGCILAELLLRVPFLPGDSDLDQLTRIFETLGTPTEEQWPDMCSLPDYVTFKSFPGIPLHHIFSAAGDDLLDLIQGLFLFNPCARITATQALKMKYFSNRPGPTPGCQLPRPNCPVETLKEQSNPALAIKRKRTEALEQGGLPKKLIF
CDK7/Cyclin H/MAT1, sequence (P51946 whole entry partner): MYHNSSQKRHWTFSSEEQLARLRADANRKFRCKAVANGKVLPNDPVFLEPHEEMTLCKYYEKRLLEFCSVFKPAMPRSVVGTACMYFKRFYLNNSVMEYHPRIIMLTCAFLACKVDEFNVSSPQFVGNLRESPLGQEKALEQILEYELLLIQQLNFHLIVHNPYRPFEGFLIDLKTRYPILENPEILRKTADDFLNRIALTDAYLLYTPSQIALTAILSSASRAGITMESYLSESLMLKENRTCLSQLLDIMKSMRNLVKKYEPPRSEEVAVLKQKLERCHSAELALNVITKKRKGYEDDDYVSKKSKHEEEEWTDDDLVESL
CDK7/Cyclin H/MAT1, sequence (P51948 whole entry partner): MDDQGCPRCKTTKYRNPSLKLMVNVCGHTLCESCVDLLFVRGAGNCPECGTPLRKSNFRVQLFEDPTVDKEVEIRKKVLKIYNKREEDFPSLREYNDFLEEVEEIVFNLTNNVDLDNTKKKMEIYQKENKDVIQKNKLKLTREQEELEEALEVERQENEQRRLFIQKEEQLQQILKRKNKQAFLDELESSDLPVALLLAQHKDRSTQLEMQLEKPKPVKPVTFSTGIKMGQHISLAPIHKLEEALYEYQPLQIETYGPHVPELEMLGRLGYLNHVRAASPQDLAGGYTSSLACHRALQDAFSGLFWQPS

Row | IC50 (CDK7/Cyclin H/MAT1) [nM] | IC50 (CDK6/Cyclin D1) [nM] | IC50 (CDK4/Cyclin D1) [nM] | IC50 (CDK9/Cyclin T1) [nM] | Compound
1 | ≥ 1000 | ≥ 1000 | ≥ 1000 | – | [2H]C([2H])([2H])NS(=O)(=O)c1ccc(Nc2ncc(C(F)(F)F)c(O[C@H]3CCOC[C@H]3O)n2)cc1 [Compound E2]
2 | – | ≥ 1000 | – | – | [2H]C([2H])([2H])NS(=O)(=O)c1ccc(Nc2ncc(C(F)(F)F)c(O[C@@H]3CCOC[C@H]3O)n2)cc1 [Compound E3]
3 | ≥ 1000 | ≥ 1000 | ≥ 1000 | – | [2H]C([2H])([2H])NS(=O)(=O)c1ccc(Nc2ncc(C(F)(F)F)c(O[C@H]3CCOC[C@@H]3O)n2)cc1 [Compound E4]
4 | ≥ 1000 | – | – | ≥ 1000 | NS(=O)(=O)c1ccc(Nc2ncc(C(F)(F)F)c(O[C@@H]3CCOC[C@@H]3O)n2)cc1 [Compound E7, 4-((4-(((3S,4R)-3-hydroxytetrahydro-2H-pyran-4-yl)oxy)-5-(trifluoromethyl)pyrimidin-2-yl)amino)benzenesulfonamide]
